In the oligonucleotide strings, read from the 5' end, every base follows the letter of its sugar. An asterisk marks phosphorothioate; unmarked linkages are phosphodiester. Other units and linkages are bracketed, terminal groups are in braces. A string of capitals states the bases alone. d = 2'-deoxy (DNA); m = 2'-O-methyl
Biological target: T1, human TLR7 (Homo sapiens, UniProt Q9NYK1)
T1 construct: HA; host or cells: 293XL-hTLR7-HA (HEK293)
T1 sequence (Q9NYK1 27-1049): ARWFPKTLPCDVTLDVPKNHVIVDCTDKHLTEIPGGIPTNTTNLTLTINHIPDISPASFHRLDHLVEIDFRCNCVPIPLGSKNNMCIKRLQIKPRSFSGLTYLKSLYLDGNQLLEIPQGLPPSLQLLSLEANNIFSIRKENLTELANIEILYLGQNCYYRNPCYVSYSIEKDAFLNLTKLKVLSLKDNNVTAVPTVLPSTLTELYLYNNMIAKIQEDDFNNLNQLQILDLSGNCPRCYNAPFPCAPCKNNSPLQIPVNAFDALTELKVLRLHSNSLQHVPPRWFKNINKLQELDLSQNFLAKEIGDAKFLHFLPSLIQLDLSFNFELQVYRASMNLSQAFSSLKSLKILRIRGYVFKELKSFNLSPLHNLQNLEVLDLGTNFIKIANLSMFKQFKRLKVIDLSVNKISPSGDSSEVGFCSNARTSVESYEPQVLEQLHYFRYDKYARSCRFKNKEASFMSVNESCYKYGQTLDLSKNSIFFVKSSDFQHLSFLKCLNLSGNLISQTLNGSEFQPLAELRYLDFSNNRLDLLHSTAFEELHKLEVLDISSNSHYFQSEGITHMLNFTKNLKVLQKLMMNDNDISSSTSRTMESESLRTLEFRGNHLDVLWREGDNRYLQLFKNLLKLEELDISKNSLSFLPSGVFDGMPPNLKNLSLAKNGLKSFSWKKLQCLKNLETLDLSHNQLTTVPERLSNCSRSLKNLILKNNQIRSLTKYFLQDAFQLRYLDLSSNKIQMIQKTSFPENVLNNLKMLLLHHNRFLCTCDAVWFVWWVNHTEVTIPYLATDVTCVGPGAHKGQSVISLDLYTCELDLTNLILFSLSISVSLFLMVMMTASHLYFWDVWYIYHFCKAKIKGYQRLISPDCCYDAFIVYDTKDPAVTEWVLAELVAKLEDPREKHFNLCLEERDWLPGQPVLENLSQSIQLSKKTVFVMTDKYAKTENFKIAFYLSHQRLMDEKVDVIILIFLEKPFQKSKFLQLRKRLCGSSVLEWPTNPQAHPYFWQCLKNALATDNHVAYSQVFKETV
Test: HEK-TLR7 NF-κB-luciferase reporter, R848 stimulation
Type: cell-based
Details: for TLR7-100 nM: averaged NF-κB-Luciferase relative to R848: HEK-TLR7, 100 nM ASO, percentage of R848 without ASO (Alharbi et al., 2020); for TLR7 100 nM: MOE-modified ASO at 100 nM; for TLR7 100 nM / TLR7 500 nM: averaged NF-κB-Luciferase relative to R848 condition; for TLR7 500 nM: MOE-modified ASO at 500 nM

Substance	TLR7-100 nM: averaged NF-κB-Luciferase relative to R848	TLR7 100 nM	TLR7 500 nM
mU*mA*mA*mA*mA*T*A*A*G*G*G*G*A*A*T*mA*mG*mG*mG*mG (mU*mA*mA*mA*mA*dT*dA*dA*dG*dG*dG*dG*dA*dA*dT*mA*mG*mG*mG*mG) [[CDKN2B-AS1]80]	40.95%	–	–
GCCCATCCATGAGGTCCTGG (antisense; 2'-MOE modified, pattern not given here) [CTNN2B-2545 MOE]	–	0.340	0.124
mG*mG*mA*mU*mU*A*A*A*A*C*A*G*A*T*T*mA*mA*mU*mA*mC (GGAUUAAAACAGATTAAUAC; sugars from the 5' end m5 d10 m5, all phosphorothioate, methylation of C not given here) [[CDKN2B-AS1]1774]	27.16%	–	–
mA*mA*mA*mA*mG*A*T*T*A*T*C*T*T*C*T*mU*mU*mU*mA*mA (AAAAGATTATCTTCTUUUAA; sugars from the 5' end m5 d10 m5, all phosphorothioate, methylation of C not given here) [[CDKN2B-AS1]2133]	47.41%	–	–
mG*mA*mU*mU*mA*A*A*A*C*A*G*A*T*T*A*mA*mU*mA*mC*mA (mG*mA*mU*mU*mA*dA*dA*dA*dC*dA*dG*dA*dT*dT*dA*mA*mU*mA*mC*mA) [[CDKN2B-AS1]1773]	21.92%	–	–
mA*mA*mU*mU*mU*A*A*A*G*C*A*T*G*A*A*mU*mA*mU*mU*mA (mA*mA*mU*mU*mU*dA*dA*dA*dG*dC*dA*dT*dG*dA*dA*mU*mA*mU*mU*mA) [[CDKN2B-AS1]645]	46.75%	–	–
mC*mU*mC*mU*mC*T*G*G*T*C*C*C*A*T*C*mC*mC*mU*mU*mC (mC*mU*mC*mU*mC*dT*dG*dG*dT*dC*dC*dC*dA*dT*dC*mC*mC*mU*mU*mC; antisense) [[LINC-PINT]109]	84.97%	–	–
mA*mG*mG*mA*mU*T*A*A*A*A*C*A*G*A*T*mU*mA*mA*mU*mA (mA*mG*mG*mA*mU*dT*dA*dA*dA*dA*dC*dA*dG*dA*dT*mU*mA*mA*mU*mA) [[CDKN2B-AS1] 1775]	36.28%	–	–
mU*mC*mU*mC*mU*G*G*T*C*C*C*A*T*C*C*mC*mU*mU*mC*mU (UCUCUGGTCCCATCCCUUCU; antisense; sugars from the 5' end m5 d10 m5, all phosphorothioate, methylation of C not given here) [[LINC-PINT]108]	78.25%	–	–
mU*mG*mA*mC*mA*T*T*T*C*G*T*G*G*C*T*mC*mC*mU*mA*mC (mU*mG*mA*mC*mA*dT*dT*dT*dC*dG*dT*dG*dG*dC*dT*mC*mC*mU*mA*mC; antisense) [[LINC-PINT]523 KL]	33.56%	–	–
mU*mU*mG*mU*mG*A*A*A*A*G*A*T*T*A*T*mC*mU*mU*mC*mU (mU*mU*mG*mU*mG*dA*dA*dA*dA*dG*dA*dT*dT*dA*dT*mC*mU*mU*mC*mU) [[CDKN2B-AS1]2138]	35.02%	–	–
mA*mA*mG*mA*mU*T*A*T*C*T*T*C*T*T*T*mU*mA*mA*mU*mU (mA*mA*mG*mA*mU*dT*dA*dT*dC*dT*dT*dC*dT*dT*dT*mU*mA*mA*mU*mU) [[CDKN2B-AS1]2131]	42.09%	–	–
mG*mU*mC*mC*mC*A*T*C*C*C*T*T*C*T*G*mC*mU*mG*mC*mC (GUCCCATCCCTTCTGCUGCC; antisense; sugars from the 5' end m5 d10 m5, all phosphorothioate, methylation of C not given here) [[LINC-PINT]102]	22.47%	–	–
TCCGGCCTCGGAAGCTCTCT (antisense; 2'-MOE modified, pattern not given here) [MB21D1-168 MOE]	–	0.440	0.166
mA*mU*mG*mA*mC*A*T*T*T*C*G*T*G*G*C*mU*mC*mC*mU*mA (mA*mU*mG*mA*mC*dA*dT*dT*dT*dC*dG*dT*dG*dG*dC*mU*mC*mC*mU*mA) [[LINC-PINT]524.1]	32.53%	–	–
mC*mA*mC*mC*mC*T*T*C*T*C*T*C*T*G*G*mU*mC*mC*mC*mA (CACCCTTCTCTCTGGUCCCA; antisense; sugars from the 5' end m5 d10 m5, all phosphorothioate, methylation of C not given here) [[LINC-PINT]116]	73.30%	–	–
mU*mC*mC*mC*mA*T*C*C*C*T*T*C*T*G*C*mU*mG*mA*mC*mA (UCCCATCCCTTCTGCUGACA; sugars from the 5' end m5 d10 m5, all phosphorothioate, methylation of C not given here) [[LINC-PINT]101]	43.08%	–	–
mA*mC*mC*mC*mU*T*C*T*C*T*C*T*G*G*T*mC*mC*mC*mA*mU (mA*mC*mC*mC*mU*dT*dC*dT*dC*dT*dC*dT*dG*dG*dT*mC*mC*mC*mA*mU; antisense) [[LINC-PINT]115]	43.37%	–	–
mU*mG*mA*mU*mG*A*T*G*C*T*T*G*C*A*G*mG*mA*mG*mG*mC (mU*mG*mA*mU*mG*dA*dT*dG*dC*dT*dT*dG*dC*dA*dG*mG*mA*mG*mG*mC) [[LINC-PINT|283.1]	25.50%	–	–
mG*mA*mA*mA*mA*G*A*T*T*A*T*C*T*T*C*mU*mU*mU*mU*mA (GAAAAGATTATCTTCUUUUA; sugars from the 5' end m5 d10 m5, all phosphorothioate, methylation of C not given here) [[CDKN2B-AS1]2134]	34.44%	–	–
mG*mG*mU*mC*mC*C*A*T*C*C*C*T*T*C*T*mG*mC*mU*mG*mC (GGUCCCATCCCTTCTGCUGC; sugars from the 5' end m5 d10 m5, all phosphorothioate, methylation of C not given here) [[LINC-PINT]103]	20.75%	–	–
GGTTTTGGCTGGGATCAAGT (antisense; 2'-MOE modified, pattern not given here) [CAMSAP1-4697 MOE]	–	0.346	0.191
mA*mA*mG*mG*mU*G*G*C*C*A*C*A*G*G*C*mA*mA*mC*mG*mU (mA*mA*mG*mG*mU*dG*dG*dC*dC*dA*dC*dA*dG*dG*dC*mA*mA*mC*mG*mU; antisense) [[CDKN2B-AS1]2198]	57.85%	–	–
mA*mG*mC*mC*mG*A*A*C*A*G*A*A*G*G*A*mG*mC*mG*mU*mC (AGCCGAACAGAAGGAGCGUC; sugars from the 5' end m5 d10 m5, all phosphorothioate, methylation of C not given here) [[LINC-PINT]587 KL]	27.70%	–	–
mA*mG*mA*mU*mU*A*T*C*T*T*C*T*T*T*T*mA*mA*mU*mU*mU (AGAUUATCTTCTTTTAAUUU; sugars from the 5' end m5 d10 m5, all phosphorothioate, methylation of C not given here) [[CDKN2B-AS1]2130]	37.10%	–	–
mA*mU*mA*mU*mC*T*G*C*T*G*C*C*C*A*C*mC*mU*mU*mC*mU (AUAUCTGCTGCCCACCUUCU; antisense; sugars from the 5' end m5 d10 m5, all phosphorothioate, methylation of C not given here) [[CDKN2B-AS1]831]	47.52%	–	–
TGGCAGGCTCAGTGATGTCT (antisense; 2'-MOE modified, pattern not given here) [CTNN2B-1642 MOE]	–	0.415	0.167
